The source made the active and inactive calls. The calls are words filed in the database; no cut-off is given here.
Tests used:
HCT-116 [1] = assay: Cytotoxicity against human HCT116 cells upto 150 uM by MTS assay; type: functional, cell-based
HCT-116 [2] = assay: Cytotoxicity against human HCT116 cells by MTS assay; type: functional, cell-based

Compound	Activity (HCT-116 [1])	IC50 (HCT-116 [2])
C/C=C1\CN(C(=O)[C@H](CCCCNC(=N)N)NC(=O)C=C(C)C)[C@H](C(=O)N[C@@H](CC(C)C)C(=O)O)[C@@H]1C	inactive	
C/C=C1/CN(C(=O)[C@H](CCCCNC(=N)N)NC(=O)CC(C)C)[C@H](C(=O)N[C@@H](Cc2c[nH]c3ccccc23)C(=O)O)[C@@H]1C [LUCENTAMYCIN B]		11 µM
C/C=C1\CN(C(=O)[C@H](CCCCNC(=N)N)NC(=O)CC(C)C)[C@H](C(=O)N[C@@H](CC(C)C)C(=O)O)[C@@H]1C	inactive	
C/C=C1\CN(C(=O)[C@H](CCCCNC(=N)N)NC(=O)c2ccccc2)[C@H](C(=O)N[C@@H](CC(C)C)C(=O)O)[C@@H]1C [LUCENTAMYCIN A]		0.2 µM
